Test results: patent US9980928B2, “Hydroxy aliphatic substituted phenyl aminoalkyl ether derivatives” (PROUS INSTITUTE FOR BIOMEDICAL RESEARCH, S.A., priority 2012, dated 2018)
Counter-ions that a name gives are not always drawn. Like-named read-outs stand apart in the source and are kept apart here.

Experiments:
uptake of serotonin = uptake of serotonin (Homo sapiens, UniProt P31645); experiment: Uptake inhibition of serotonin, cellular assay; type: cell-based
Experimental: (§1) The effect of the compounds of the present invention as inhibitors of the uptake of norepinephrine and serotonin in cellular assays at concentrations that range from […] to 1 nM is determined following the methods described in Galli, A. et al. J Exp Biol 1995, 198(Pt. 10): 2197-212 and Gu, H. et al. J Biol Chem. 1994, 269(10):7124-30.

serotonin transporter = target: T1, serotonin transporter (Homo sapiens, UniProt P31645); experiment: Serotonin transporter binding radioligand inhibition ([3H]-imipramine); conditions: read-out: serotonin binding inhibition
T1 construct: expressed in transfected cells; host or cells: CHO cells
T1 sequence (P31645 whole entry): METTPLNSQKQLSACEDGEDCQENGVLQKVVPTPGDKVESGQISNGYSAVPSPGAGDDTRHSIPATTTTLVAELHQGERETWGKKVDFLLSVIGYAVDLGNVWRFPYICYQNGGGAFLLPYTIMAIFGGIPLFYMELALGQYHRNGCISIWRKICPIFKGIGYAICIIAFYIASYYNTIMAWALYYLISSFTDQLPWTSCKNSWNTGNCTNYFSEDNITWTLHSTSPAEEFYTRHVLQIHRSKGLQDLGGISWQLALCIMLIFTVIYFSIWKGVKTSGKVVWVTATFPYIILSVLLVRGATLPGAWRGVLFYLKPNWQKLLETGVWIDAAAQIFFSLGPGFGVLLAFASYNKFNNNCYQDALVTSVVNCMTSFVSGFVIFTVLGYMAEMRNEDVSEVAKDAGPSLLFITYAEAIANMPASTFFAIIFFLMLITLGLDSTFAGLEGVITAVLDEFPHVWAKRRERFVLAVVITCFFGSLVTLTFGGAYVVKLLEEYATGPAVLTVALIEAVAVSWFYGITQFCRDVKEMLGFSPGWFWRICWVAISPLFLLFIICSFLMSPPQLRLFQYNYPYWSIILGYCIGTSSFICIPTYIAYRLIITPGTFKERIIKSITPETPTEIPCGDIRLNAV
Excerpt: The serotonin transporter removes serotonin from the synaptic deft. The serotonin transporter terminates the effects of […], enabling its reuse by the presynaptic neuron.

uptake of norepinephrine = uptake of norepinephrine (Homo sapiens, UniProt P23975); experiment: Uptake inhibition of norepinephrine, cellular assay; type: cell-based
Sequence of uptake of norepinephrine (P23975 whole entry): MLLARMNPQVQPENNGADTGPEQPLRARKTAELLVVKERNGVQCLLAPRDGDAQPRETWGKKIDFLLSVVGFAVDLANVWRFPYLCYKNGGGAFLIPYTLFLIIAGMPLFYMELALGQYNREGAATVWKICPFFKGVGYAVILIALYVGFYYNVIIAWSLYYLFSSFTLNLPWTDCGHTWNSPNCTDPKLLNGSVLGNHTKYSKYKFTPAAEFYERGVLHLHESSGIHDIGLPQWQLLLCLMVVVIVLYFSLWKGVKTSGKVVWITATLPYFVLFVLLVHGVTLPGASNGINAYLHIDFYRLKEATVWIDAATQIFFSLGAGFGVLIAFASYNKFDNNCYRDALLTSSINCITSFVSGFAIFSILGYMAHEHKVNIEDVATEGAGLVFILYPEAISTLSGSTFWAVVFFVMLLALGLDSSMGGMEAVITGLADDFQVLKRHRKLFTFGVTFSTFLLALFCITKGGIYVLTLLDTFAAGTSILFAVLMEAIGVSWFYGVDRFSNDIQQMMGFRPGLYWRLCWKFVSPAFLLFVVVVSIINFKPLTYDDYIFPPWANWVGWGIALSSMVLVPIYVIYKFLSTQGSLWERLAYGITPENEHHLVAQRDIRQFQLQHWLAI
Experimental: as §1

[1] = target: T2, norepinephrine (NE) transporter (Homo sapiens, UniProt P23975); experiment: Norepinephrine transporter binding radioligand inhibition ([3H]-nisoxetine); conditions: concentration 10 μM
T2 construct: expressed in transfected cells; host or cells: CHO cells
T2 sequence (P23975 whole entry): as above
Experimental: The norepinephrine (NE) transporter removes NE from the synaptic cleft. The NE transporter terminates the effects of […], enabling its reuse by the presynaptic neuron. The in vitro binding of the compounds of the invention to the NE transporter and the percent inhibition of control-specific binding ([^3H]-nisoxetine in human recombinant CHO cells) is determined following the method described in Pacholczyk et al., (Nature 1991, 350(6316): 350-4.

mice = experiment: Novel object recognition test (acute); type: in vivo; conditions: same experimental conditions
Excerpt: The novel object recognition task is used to evaluate cognition, particularly memory recognition, in rodent models of CNS disorders. This test is based on the spontaneous tendency of rodents to spend more time exploring a novel object than a familiar one. The choice to explore the novel object reflects the use of learning and memory recognition. The novel object recognition test provides a measure of activity in a novel environment allowing tests for emotional reactivity and also for novel object recognition, a cognitive domain that depends on hippocampal functional integrity. Animals were habituated to the presence of two identical objects (LEGO® pieces) during a single session of 5 minutes (training) and sniffing (exploration of an object was defined as pointing the nose to the object at a distance of <1 cm and/or touching it with the nose). Mice were injected with saline or with the compound to be tested and returned to their home cages. At 24 hours the animals were introduced in the same open field again with the same two items (familiarization), and again exploration in each of them for 5 minutes was registered. One hour later, the mice were retested in the open field for 3 minutes, but this time with one of the “familiar” objects replaced by a new one (test). To analyze cognitive performance, a discrimination index was calculated as the difference in time exploring the novel and familiar object, expressed as the ratio of the total time spent exploring both objects, which made it possible to adjust for any differences in total exploration time. This test is useful for assessing impaired cognitive ability in transgenic strains of mice and evaluating novel chemical entities for their effect on cognition (Zhang, R. J Alzheimers Dis 2012, 31(4): 801-12). […] Neuroplasticity 2007, 26496).

[2] = read-out: Serotonin reuptake inhibition (IC50 μM)
[3] = read-out: Norepinephrine reuptake inhibition (IC50 μM)
[4] = Serotonin reuptake inhibition (IC50 μM)
[5] = Norepinephrine reuptake inhibition (IC50 μM)

Sequence of uptake of serotonin (P31645 whole entry): as the sequence (P31645 whole entry) above

Row | SMILES | IC50 (uptake of serotonin; [2]) [µM] | inhibition at 10 µM (serotonin transporter; concentration 10 μM) [%] | IC50 (uptake of norepinephrine; [3]) [µM] | inhibition at 10 µM [1] [%] | cognitive improvement (mice; 3 mg/kg i.p.) | cognitive improvement (mice; 30 mg/kg i.p.) | IC50 (uptake of serotonin; [4]) [µM] | inhibition at 10 µM (serotonin transporter) [%] | IC50 (uptake of norepinephrine; [5]) [µM]
1 | CNCCC(Oc1ccc(CCO)cc1)c1ccccc1 (single isomer, unassigned) [Example 7, 2-[4-[3-(Methylamino)-1-phenylpropoxy]phenyl]ethanol caffeic acid salt] | 2.5 to 4.8 | 68 to 82 | 1.6 to 2.9 | – | – | – | – | – | –
2 | CNCCC(Oc1ccc(CCOC(C)=O)cc1)c1ccccc1 (stereo not shown) [Example 10, 4-[3-(Methylamino)-1-phenylpropoxy]phenethyl acetate hydrochloride] | 2.5 to 4.8 | 68 to 82 | 1.6 to 2.9 | 65 to 90 | – | – | – | – | –
3 | C#CCN[C@@H]1CCc2ccccc21 [rasagiline, reference compound] | – | – | – | – | absence of cognitive improvement | – | – | – | –
4 | CNCCC(Oc1ccc(CCO)cc1)c1ccccc1 (single isomer, unassigned) [Example 6, 2-[4-[3-(Methylamino)-1-phenylpropoxy]phenyl]ethanol ferulic acid salt] | 2.5 to 4.8 | – | 1.6 to 2.9 | – | – | – | – | – | –
5 | CNCCC(Oc1ccc(CCCCO)cc1)c1ccccc1 (stereo not shown) [Example 14, 4-[4-[3-(Methylamino)-1-phenylpropoxy]phenyl]butan-1-ol hydrochloride] | 0.32 | 89 | 0.74 | 85 | – | – | – | – | –
6 | CNCCC(Oc1cc(CO)cc(CO)c1)c1ccccc1 (stereo not shown) [Example 19, [5-[3-(Methylamino)-1-phenylpropoxy]-1,3-phenylene]dimethanol hydrochloride] | 4.35 | 79 | 1.59 | 75 | – | – | – | – | –
7 | CCCC(CCC)C(=O)N(C)CCC(Oc1ccc(CCO)cc1)c1ccccc1 (stereo not shown) [Example 11, N-[3-[4-(2-Hydroxyethyl)phenoxy]-3-phenylpropyl]-N-methyl-2-propylpentanamide] | 2.5 to 4.8 | 68 to 82 | 1.6 to 2.9 | 65 to 90 | – | – | – | – | –
8 | CNCCC(Oc1ccc(CO)cc1)c1ccccc1 (stereo not shown) [Example 17, [4-[3-(Methylamino)-1-phenylpropoxy]phenyl]methanol hydrochloride] | 0.42 | 97 | 0.13 | 94 | – | – | – | – | –
9 | CCN(CC)C(=O)C1(c2ccccc2)CC1CN (stereo not shown) [milnacipran, reference compound] | – | – | – | – | – | absence of cognitive improvement | – | – | –
10 | CNCCC(Oc1ccc(CCO)cc1)c1ccccc1 [Example 5, 2-[4-[3-(Methylamino)-1-phenylpropoxy]phenyl]ethanol L-ascorbic acid salt] | – | – | – | 65 to 90 | – | – | 2.5 to 4.8 | 68 to 82 | 1.6 to 2.9
11 | OCCc1ccc(OC[C@@H]2CNCC[C@H]2c2ccc(F)cc2)cc1 [Example 30, 2-[4-[[(3S,4R)-4-(4-Fluorophenyl)piperidin-3-yl]methoxy]phenyl]ethanol] | 2.5 to 4.8 | 68 to 82 | 1.6 to 2.9 | 65 to 90 | – | – | – | – | –
12 | CNCCC(Oc1ccc(CCO)cc1)c1ccccc1 (stereo not shown) [Example 8, 2-[4-[3-(Methylamino)-1-phenylpropoxy]phenyl]ethanol valproic acid salt] | – | – | – | – | – | – | 2.5 to 4.8 | – | 1.6 to 2.9
13 | CNCCC(Oc1ccc(CCO)cc1)c1ccccc1 [Example 9, 2-[4-[3-(Methylamino)-1-phenylpropoxy]phenyl]ethanol (R)-lipoic acid salt] | – | – | – | – | – | – | 2.5 to 4.8 | – | 1.6 to 2.9
14 | CNCCC(Oc1ccc(CCCO)cc1)c1ccccc1 (stereo not shown) [Example 16, 3-[4-[3-(Methylamino)-1-phenylpropoxy]phenyl]propan-1-ol hydrochloride] | 2.36 | 78 | 0.46 | 90 | – | – | – | – | –
15 | O=C1CCCN1CCOc1ccc(CCO)cc1 [Example 1, 1-[2-[4-(2-Hydroxyethyl)phenoxy]ethyl]pyrrolidin-2-one] | 2.5 to 4.8 | 68 to 82 | 1.6 to 2.9 | 65 to 90 | – | – | – | – | –

The next lines start with results.

Row | IC50 (uptake of serotonin; [2]) [µM] | inhibition at 10 µM (serotonin transporter; concentration 10 μM) [%] | IC50 (uptake of norepinephrine; [3]) [µM] | inhibition at 10 µM [1] [%] | SMILES | cognitive improvement (mice; 3 mg/kg i.p.) | cognitive improvement (mice; 30 mg/kg i.p.) | IC50 (uptake of serotonin; [4]) [µM] | inhibition at 10 µM (serotonin transporter) [%] | IC50 (uptake of norepinephrine; [5]) [µM]
16 | 2.5 to 4.8 | 68 to 82 | 1.6 to 2.9 | 65 to 90 | CNCCC(Oc1ccc(CCO[C@@H]2O[C@H](CO)[C@@H](O)[C@H](O)[C@H]2O)cc1)c1ccccc1 (stereo partly drawn) [Example 23, (2R,3S,4S,5R,6R)-2-(Hydroxymethyl)-6-[4-[3-(methylamino)-1-phenylpropoxy]phenethoxy]tetrahydro-2H-pyran-3,4,5-triol] | – | – | – | – | –
17 | 2.5 to 4.8 | 68 to 82 | 1.6 to 2.9 | 65 to 90 | CN(CCC(Oc1ccc(/C=C/CO)cc1)c1ccccc1)C(=O)OC(C)(C)C (stereo not shown) [Example 15, (E)-tert-Butyl [3-[4-(3-hydroxyprop-1-enyl)phenoxy]-3-phenylpropyl](methyl)carbamate] | – | – | – | – | –
18 | 2.5 to 4.8 | 68 to 82 | 1.6 to 2.9 | 65 to 90 | CNCCC(Oc1ccc(CCCCCCO)cc1)c1ccccc1 (stereo not shown) [Example 26, 6-[4-(3-Methylamino-1-phenylpropoxy)phenyl]hexan-1-ol] | – | – | – | – | –
19 | 2.5 to 4.8 | 68 to 82 | 1.6 to 2.9 | 65 to 90 | CNCCC(Oc1ccc(C/C=C/CO)cc1)c1ccccc1 (stereo not shown) [Example 25, 4-[4-(3-Methylamino-1-phenylpropoxy)phenyl]but-2-en-1-ol] | – | – | – | – | –
20 | 2.5 to 4.8 | 68 to 82 | 1.6 to 2.9 | 65 to 90 | CNCC[C@H](Oc1ccc(CCO)cc1)c1cccs1 [Example 28, (S)2-[4-(3-Methylamino-1-thiophen-2-ylpropoxy)phenyl]ethanol] | – | – | – | – | –
21 | 2.5 to 4.8 | 68 to 82 | 1.6 to 2.9 | 65 to 90 | CN(C)CCC(Oc1ccc(CCO)cc1)c1ccccc1 (stereo not shown) [Example 24, 2-[4-(3-Dimethylamino-1-phenylpropoxy)phenyl]ethanol] | – | – | – | – | –
22 | 2.5 to 4.8 | 68 to 82 | 1.6 to 2.9 | 65 to 90 | CNCCC(Oc1cc(CCO)cc(CCO)c1)c1ccccc1 (stereo not shown) [Example 20, 2,2′-[5-[3-(Methylamino)-1-phenylpropoxy]-1,3-phenylene]diethanol] | – | – | – | – | –
23 | 2.5 to 4.8 | 68 to 82 | 1.6 to 2.9 | 65 to 90 | CNCCC(Oc1cc(CCCO)cc(CCCO)c1)c1ccccc1 (stereo not shown) [Example 21, 3,3′-[5-[3-(Methylamino)-1-phenylpropoxy]-1,3-phenylene]dipropan-1-ol] | – | – | – | – | –
24 | 2.5 to 4.8 | 68 to 82 | 1.6 to 2.9 | 65 to 90 | CNCCC(Oc1ccc(/C=C/CCCCO)cc1)c1ccccc1 (stereo not shown) [Example 27, 6-[4-(3-Methylamino-1-phenylpropoxy)phenyl]hex-5-en-1-ol] | – | – | – | – | –
25 | 2.5 to 4.8 | 68 to 82 | 1.6 to 2.9 | 65 to 90 | CN(C)CC(Oc1ccc(CCO)cc1)C1(O)CCCCC1 (stereo not shown) [Example 32, 1-[2-Dimethylamino-1-[4-(2-hydroxyethyl)phenoxy]-ethyl]-cyclohexanol] | – | – | – | – | –
26 | 2.5 to 4.8 | 68 to 82 | 1.6 to 2.9 | 65 to 90 | CN(C)CC(Oc1ccc(CCO)cc1)C1CCCCC1O (stereo not shown) [Example 31, 2-[2-Dimethylamino-1-[4-(2-hydroxyethyl)phenoxy]ethyl]cyclohexanol] | – | – | – | – | –
27 | 2.5 to 4.8 | 68 to 82 | 1.6 to 2.9 | 65 to 90 | CNCCC(Oc1cc(CCCCO)cc(CCCCO)c1)c1ccccc1 (stereo not shown) [Example 22, 4,4′-[5-[3-(Methylamino)-1-phenylpropoxy]-1,3-phenylene]dibutan-1-ol] | – | – | – | – | –
28 | 2.6 | 79 | 2.8 | 80 | CNCC[C@@H](Oc1ccc(CCO)cc1)c1cccs1 [Example 13, (R)-2-[4-[3-(Methylamino)-1-(thiophen-2-yl)propoxy]phenyl]ethanol] | – | – | – | – | –
29 | 2.5 to 4.8 | 68 to 82 | 1.6 to 2.9 | 65 to 90 | OCCc1ccc(OC(c2ccccc2)C2CNCCO2)cc1 (stereo not shown) [Example 29, 2-[4-(Morpholin-2-yl(phenyl)methoxy)phenyl]ethanol] | – | – | – | – | –
